{"source": "patent US20250352596A1", "about": "“DIETARY SUPPLEMENTS FOR MOOD SUPPORT” (Melaleuca, Inc., priority 2024, published 2025)", "assay_type_in_all_cases": "biochemical", "key": {"GRK2": {"biological_target": "T1, GRK2 (Homo sapiens, UniProt P25098)", "T1 sequence (P25098 1-689)": "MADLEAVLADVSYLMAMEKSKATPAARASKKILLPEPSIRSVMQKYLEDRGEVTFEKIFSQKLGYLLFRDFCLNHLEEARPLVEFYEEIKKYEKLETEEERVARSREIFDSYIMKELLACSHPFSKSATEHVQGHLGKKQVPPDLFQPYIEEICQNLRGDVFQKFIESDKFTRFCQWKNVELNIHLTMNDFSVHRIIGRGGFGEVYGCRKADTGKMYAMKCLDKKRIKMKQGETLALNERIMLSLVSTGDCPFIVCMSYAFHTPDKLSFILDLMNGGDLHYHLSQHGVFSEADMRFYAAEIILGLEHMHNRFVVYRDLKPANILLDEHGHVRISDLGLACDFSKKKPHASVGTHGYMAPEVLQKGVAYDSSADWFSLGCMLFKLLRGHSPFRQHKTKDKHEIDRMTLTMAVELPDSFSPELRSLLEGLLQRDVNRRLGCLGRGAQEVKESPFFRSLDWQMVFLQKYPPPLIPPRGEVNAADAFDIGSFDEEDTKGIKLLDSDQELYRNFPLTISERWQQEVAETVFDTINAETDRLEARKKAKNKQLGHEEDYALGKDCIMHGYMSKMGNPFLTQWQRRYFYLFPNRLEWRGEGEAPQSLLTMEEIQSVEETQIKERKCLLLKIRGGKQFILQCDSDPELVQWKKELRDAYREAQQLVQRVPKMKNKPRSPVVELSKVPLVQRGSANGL", "assay": "kinase inhibition, IC50 of Blend A, ingredients and control"}, "GSK3α": {"biological_target": "GSK3α (Homo sapiens, UniProt P49840)", "sequence (P49840 whole entry, species assumed)": "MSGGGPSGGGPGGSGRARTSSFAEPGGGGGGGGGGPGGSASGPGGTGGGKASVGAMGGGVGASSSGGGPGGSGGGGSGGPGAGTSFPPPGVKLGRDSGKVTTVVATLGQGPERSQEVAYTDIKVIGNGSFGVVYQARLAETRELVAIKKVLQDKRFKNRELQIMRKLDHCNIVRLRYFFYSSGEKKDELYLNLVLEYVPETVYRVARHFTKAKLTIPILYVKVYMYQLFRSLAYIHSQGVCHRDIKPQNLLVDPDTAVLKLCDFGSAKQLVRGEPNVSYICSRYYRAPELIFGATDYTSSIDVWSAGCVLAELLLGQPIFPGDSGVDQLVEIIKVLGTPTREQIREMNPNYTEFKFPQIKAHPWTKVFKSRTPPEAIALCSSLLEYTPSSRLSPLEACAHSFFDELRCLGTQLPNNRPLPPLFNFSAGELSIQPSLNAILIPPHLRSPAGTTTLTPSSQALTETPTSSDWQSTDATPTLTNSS", "assay": "kinase inhibition, IC50 of Blend A, ingredients and control", "conditions": "follow up investigation; for inositol the upper limit of use (1 mM) was used in the calculation"}, "GSK3β": {"biological_target": "GSK3β (Homo sapiens, UniProt P49841)", "sequence (P49841 whole entry, species assumed)": "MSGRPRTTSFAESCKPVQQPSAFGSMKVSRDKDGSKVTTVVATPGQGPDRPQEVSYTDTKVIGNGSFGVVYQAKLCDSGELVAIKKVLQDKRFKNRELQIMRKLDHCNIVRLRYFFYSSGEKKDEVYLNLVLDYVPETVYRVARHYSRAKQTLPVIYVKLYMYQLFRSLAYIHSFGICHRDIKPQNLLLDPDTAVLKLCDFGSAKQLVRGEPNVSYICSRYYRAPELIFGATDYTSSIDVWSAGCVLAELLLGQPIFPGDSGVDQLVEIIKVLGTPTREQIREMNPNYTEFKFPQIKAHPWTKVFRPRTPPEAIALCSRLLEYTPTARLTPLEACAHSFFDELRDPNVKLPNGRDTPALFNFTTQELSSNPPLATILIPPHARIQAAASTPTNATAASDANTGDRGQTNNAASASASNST", "assay": "kinase inhibition, IC50 of Blend A, ingredients and control", "conditions": "follow up investigation; for inositol the upper limit of use (1 mM) was used in the calculation"}, "ERK1": {"biological_target": "ERK1 (Homo sapiens, UniProt P27361)", "sequence (P27361 whole entry, species assumed)": "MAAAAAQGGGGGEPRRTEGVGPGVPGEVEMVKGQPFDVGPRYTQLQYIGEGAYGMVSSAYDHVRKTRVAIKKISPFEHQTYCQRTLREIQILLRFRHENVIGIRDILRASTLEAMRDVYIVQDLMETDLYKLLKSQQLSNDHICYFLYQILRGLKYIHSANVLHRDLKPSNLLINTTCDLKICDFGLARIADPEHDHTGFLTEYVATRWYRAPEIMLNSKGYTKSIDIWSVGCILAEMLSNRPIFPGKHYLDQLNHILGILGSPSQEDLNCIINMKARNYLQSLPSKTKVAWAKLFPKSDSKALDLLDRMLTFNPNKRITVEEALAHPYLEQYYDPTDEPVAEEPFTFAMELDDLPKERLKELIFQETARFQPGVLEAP", "assay": "kinase inhibition screen, IC50 of Blend A vs control compound", "conditions": "initial investigation, Table 17; Blend A head reads IC50* (asterisk unexplained)", "text": "The cellular mechanism of action of known pharmaceutical compounds targeting mental health require the inhibition of individual enzymes. For example, one of the most well-known pharmaceuticals utilized in the mental health space, lithium, can trace its efficacy in part to the inhibition of an enzyme called glycogen synthase kinase 3 (GSK3). A technique similar to one used in the pharmaceutical industry was used to determine study a mood support composition. See, e.g., Duong-Ly, K. C. & Peterson, J. R. Curr. Protoc. Pharmacol. Chapter 2, Unit2.9 (2013); Ma, H. et al. Expert Opin. Drug Discov.\nWithin the body, protein kinases are responsible for carrying out cellular and intracellular actions, such as cell-to-cell signaling, neurotransmitter regulation, and hormone release. Several protein kinases are known to influence mood, and many are targets of therapeutic drugs. As a natural alternative to pharmaceuticals, Blend A was screened for efficacy of inhibiting 18 common, mood-related drug targets, including 17 kinases and 1 enzyme."}}}
{"compound": "CN[C@@H]1C[C@H]2O[C@@](C)([C@@H]1OC)n1c3ccccc3c3c4c(c5c6ccccc6n2c5c31)C(=O)NC4", "note": "[STAUROSPORINE, staurosporine, reference compound]", "values": [{"measurement": "Reciprocal Sum", "setting": "GRK2; Table 19, sum of the two analyses, each 50% weight", "result": "1.60E+06"}]}
{"compound": "O[C@H]1[C@H](O)[C@@H](O)[C@H](O)[C@@H](O)[C@H]1O", "note": "[Inositol, inositol]", "values": [{"measurement": "efficacy for inhibiting the target, in words", "setting": "GRK2; follow up investigation, for inositol the upper limit of use (1 mM) was used in the calculation", "result": "did not demonstrate efficacy"}, {"measurement": "efficacy for inhibiting the target, in words", "setting": "GSK3α", "result": "did not demonstrate efficacy"}, {"measurement": "efficacy for inhibiting the target, in words", "setting": "GSK3β", "result": "did not demonstrate efficacy"}]}
{"compound": "O=C(Nc1ccc2[nH]nc(-c3ccncc3)c2c1)[C@@H]1CCN(CC(=O)N2CCN(c3ccc(-c4ncccn4)cc3)CC2)C1", "note": "[SCH772984]", "values": [{"measurement": "IC50", "setting": "ERK1", "result": 5.57, "unit": "nM"}]}
